# From paper PMC10589313 (Nature Communications, 2023)
# “And” between values parts separate entries of the source, which are not always exact repeats. Equal entries are not always repeated.
# Experiments:
# [1] = target: T1, human wild-type H4R (Homo sapiens, UniProt Q9H3N8); assay: TGFα shedding assay, wild-type H4R; format: cell-based
# T1 construct: a mutant H4R (human, full-length, and untagged); expressed in transfected cells; host or cells: HEK293A
# Description: (§1) The mutants were prepared using the primers listed in Supplementary Table 2. […] The chimeric Gαq/i1 subunit comprises the Gαq backbone and Gαi1-derived six-amino acid C-terminus and couples with Gi-coupled H4R but induces a Gq-dependent TGFα shedding response. After culturing for 1 day and incubating at 37 °C in a 5% CO2 incubator, the transfected cells were harvested by trypsinization, neutralized with Dulbecco’s modified Eagle’s medium containing 10% fetal calf serum (FCS) and penicillin–streptomycin, washed once with Hank’s balanced salt solution (HBSS) containing 5 mM of HEPES (pH 7.4), and resuspended in 6 mL of the HEPES-containing HBSS. The cell suspension was seeded into a 96-well plate at a volume of […] per well (typically, 48 wells per transfected cells) and incubated for 30 min in the CO2 incubator. Test compounds (10×, diluted in 0.01% BSA and 5 mM of HEPES-containing HBSS, […] volume) were added to duplicate wells and incubated for 1 h. After centrifugation, the conditioned medium ([…]) was transferred to an empty 96-well plate. AP reaction solution [10 mM of p-nitrophenylphosphate (p-NPP), 120 mM of Tris–HCl (pH 9.5), 40 mM of NaCl, and 10 mM of MgCl2] was dispensed into the cell culture plates and plates containing conditioned media ([…]). Absorbance was measured at 405 nm before and after a 1-h incubation period at 25 °C using a microplate reader (iMark™ Microplate Absorbance Reader; BioRad). Ligand-induced AP-TGFα release was calculated as previously described. The vehicle-treated AP-TGFα release signal was set as a baseline unless otherwise specified. AP-TGFα release signals were fitted with a four-parameter sigmoidal concentration-response curve, from which EC50 and Emax values were obtained, using GraphPad Prism 9 software (GraphPad Prism). Negative values of logarithmically transformed EC50 values (pEC50) were used to calculate the mean and standard error of independent experiments.
# (§2) All functional study data were analyzed using Prism 9 (GraphPad) and are presented as mean ± standard error of the mean (SEM) of three independent experiments. Statistical analyses were performed using Prism 9 (GraphPad) with one-way analysis of variance followed by Dunnett’s post-hoc test. Values with p < 0.05 are considered statistically significant.
# [2] = target: H3R; conditions: read-out: binding affinity for H3R; cited from earlier work
# [3] = target: H4R; conditions: read-out: binding affinity (Ki) for H4R; cited from earlier work
# [4] = target: T2, human H4R N147W mutant (Homo sapiens, UniProt Q9H3N8, N147W); assay: TGFα shedding assay, H4R N147W mutant; format: cell-based; conditions: for EC50: EC50 (nM)
# T2 construct: a mutant H4R (human, full-length, and untagged); expressed in transfected cells; host or cells: HEK293A
# T2 sequence (Q9H3N8 whole entry N147W): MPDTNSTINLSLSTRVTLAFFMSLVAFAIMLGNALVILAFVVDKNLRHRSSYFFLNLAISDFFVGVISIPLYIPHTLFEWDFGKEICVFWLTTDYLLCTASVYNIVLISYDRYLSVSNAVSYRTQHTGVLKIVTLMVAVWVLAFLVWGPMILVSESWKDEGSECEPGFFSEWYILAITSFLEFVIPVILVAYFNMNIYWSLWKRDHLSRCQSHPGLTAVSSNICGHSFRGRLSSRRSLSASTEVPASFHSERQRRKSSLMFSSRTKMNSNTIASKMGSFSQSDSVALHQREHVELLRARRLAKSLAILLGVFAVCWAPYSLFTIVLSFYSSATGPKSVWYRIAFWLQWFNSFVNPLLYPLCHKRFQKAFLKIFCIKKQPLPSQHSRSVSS
# Description: as §1, §2
# [5] = target: T3, human H4R T99A mutant (Homo sapiens, UniProt Q9H3N8, T99A); assay: TGFα shedding assay, H4R T99A mutant; format: cell-based
# T3 construct: a mutant H4R (human, full-length, and untagged); expressed in transfected cells; host or cells: HEK293A
# T3 sequence (Q9H3N8 whole entry T99A): as the sequence (Q9H3N8 whole entry N147W) above, with T99A, W147N counted along it
# Description: as §1, §2
# [6] = target: T4, human H4R W348A mutant (Homo sapiens, UniProt Q9H3N8, W348A); assay: TGFα shedding assay, H4R W348A mutant; format: cell-based
# T4 construct: a mutant H4R (human, full-length, and untagged); expressed in transfected cells; host or cells: HEK293A
# T4 sequence (Q9H3N8 whole entry W348A): as the sequence (Q9H3N8 whole entry N147W) above, with W147N, W348A counted along it
# Description: as §1
# (§3) All functional study data were analyzed using Prism 9 (GraphPad) and are presented as mean ± standard error of the mean (SEM) of three independent experiments. […]
# [7] = target: T5, human H4R C98A mutant (Homo sapiens, UniProt Q9H3N8, C98A); assay: TGFα shedding assay, H4R C98A mutant; format: cell-based
# T5 construct: a mutant H4R (human, full-length, and untagged); expressed in transfected cells; host or cells: HEK293A
# T5 sequence (Q9H3N8 whole entry C98A): as the sequence (Q9H3N8 whole entry N147W) above, with C98A, W147N counted along it
# Description: as §1, §2
# [8] = target: T6, human H4R D94A mutant (Homo sapiens, UniProt Q9H3N8, D94A); assay: TGFα shedding assay, H4R D94A mutant; format: cell-based
# T6 construct: a mutant H4R (human, full-length, and untagged); expressed in transfected cells; host or cells: HEK293A
# T6 sequence (Q9H3N8 whole entry D94A): as the sequence (Q9H3N8 whole entry N147W) above, with D94A, W147N counted along it
# Description: as §1, §3
# [9] = target: T7, human H4R E182A mutant (Homo sapiens, UniProt Q9H3N8, E182A); assay: TGFα shedding assay, H4R E182A mutant; format: cell-based
# T7 construct: a mutant H4R (human, full-length, and untagged); expressed in transfected cells; host or cells: HEK293A
# T7 sequence (Q9H3N8 whole entry E182A): as the sequence (Q9H3N8 whole entry N147W) above, with W147N, E182A counted along it
# Description: (§4) The mutants were prepared using the primers listed in Supplementary Table 2. […] The chimeric Gαq/i1 subunit comprises the Gαq backbone and Gαi1-derived six-amino acid C-terminus and couples with Gi-coupled H4R but induces a Gq-dependent TGFα shedding response. After culturing for 1 day and incubating at 37 °C in a 5% CO2 incubator, the transfected cells were harvested by trypsinization, neutralized with Dulbecco’s modified Eagle’s medium containing 10% fetal calf serum (FCS) and penicillin–streptomycin, washed once with Hank’s balanced salt solution (HBSS) containing 5 mM of HEPES (pH 7.4), and resuspended in 6 mL of the HEPES-containing HBSS. The cell suspension was seeded into a 96-well plate at a volume of […] per well (typically, 48 wells per transfected cells) and incubated for 30 min in the CO2 incubator. Test compounds (10×, diluted in 0.01% BSA and 5 mM of HEPES-containing HBSS, […] volume) were added to duplicate wells and incubated for 1 h. […] Absorbance was measured at 405 nm before and after a 1-h incubation period at 25 °C using a microplate reader (iMark™ Microplate Absorbance Reader; BioRad). Ligand-induced AP-TGFα release was calculated as previously described. […]
# as §3
# [10] = target: T8, human H4R E182N mutant (Homo sapiens, UniProt Q9H3N8, E182N); assay: TGFα shedding assay, H4R E182N mutant; format: cell-based
# T8 construct: a mutant H4R (human, full-length, and untagged); expressed in transfected cells; host or cells: HEK293A
# T8 sequence (Q9H3N8 whole entry E182N): as the sequence (Q9H3N8 whole entry N147W) above, with W147N, E182N counted along it
# Description: as §1, §3
# [11] = target: T9, human H4R F344A mutant (Homo sapiens, UniProt Q9H3N8, F344A); assay: TGFα shedding assay, H4R F344A mutant; format: cell-based
# T9 construct: a mutant H4R (human, full-length, and untagged); expressed in transfected cells; host or cells: HEK293A
# T9 sequence (Q9H3N8 whole entry F344A): as the sequence (Q9H3N8 whole entry N147W) above, with W147N, F344A counted along it
# Description: as §4, §3
# [12] = Imetit (M) -5 (log concentration), raw replicate values
# T1 sequence (Q9H3N8 whole entry): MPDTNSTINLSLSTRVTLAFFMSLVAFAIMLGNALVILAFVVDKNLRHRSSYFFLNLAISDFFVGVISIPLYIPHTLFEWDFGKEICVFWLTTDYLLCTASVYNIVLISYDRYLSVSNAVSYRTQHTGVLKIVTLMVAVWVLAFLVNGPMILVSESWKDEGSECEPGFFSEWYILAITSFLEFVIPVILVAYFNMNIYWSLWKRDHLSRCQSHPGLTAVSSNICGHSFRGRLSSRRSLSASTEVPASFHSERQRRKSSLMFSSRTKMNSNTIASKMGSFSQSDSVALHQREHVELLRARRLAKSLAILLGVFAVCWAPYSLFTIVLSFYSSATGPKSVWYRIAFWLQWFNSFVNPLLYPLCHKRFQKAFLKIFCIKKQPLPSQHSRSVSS
structure (smiles),measurement,setting,value
"N=C(N)SCCc1cnc[nH]1 [Imetit, imetit]",fold of change,"[1]; WT H4R, EC50 relative to WT",1 fold
same,EC50,"[1]; pEC50, hH4R, single experiments (3 columns), source data Figure 4e-f",35.8 nM and 30.7 nM
same,EC50,"[1]; pEC50 mean ± SEM, WT H4R, three independent experiments",29.5 nM
same,Emax,[1]; read-out: Emax (%) mean ± SEM,14.9 ± 1.19%
same,Ki,[2],0.3 nM
same,Ki,[3],2.7 nM
same,EC50,[4]; N147W mutant,603 nM
same,EC50,"[4]; N147W, single experiments, source data Figure 4e-f",569 nM and 612 nM and 627 nM
same,"Shedding assay response, N147W",[4]; [12],17.8239 and 17.9174 and 17.7465 and 15.1009 and 14.2938 and 15.4251 and 18.7186 and 19.6688 and 18.9313
same,fold of change,"[4]; N147W mutant, EC50 relative to WT",20.2 fold
same,Emax,[4]; read-out: Emax (%) mean ± SEM,18.4 ± 1.29%
same,EC50,[5],76 nM
same,"Shedding assay response, T99A",[5]; [12],14.3742 and 14.7391 and 15.3687 and 10.9344 and 9.709 and 12.0103 and 13.6177 and 15.7879 and 16.7579
same,fold of change,"[5]; T99A mutant, EC50 relative to WT",2.5 fold
same,Emax,[5]; read-out: Emax (%) mean ± SEM,13.7 ± 1.67%
same,EC50,[6],> 10 µM
same,"Shedding assay response, W348A",[6]; [12],2.59 and 2.574 and 7.329 and -2.233 and 0.1771 and -0.5753 and 0.3498 and -1.339 and 0.3261
same,EC50,[7]; C98A mutant,479 nM
same,fold of change,"[7]; C98A mutant, EC50 relative to WT",16.3 fold
same,EC50,"[7]; EC50 (nM), C98A mutant",486 nM
same,"Shedding assay response, C98A",[7]; [12],13.5967 and 12.9858 and 12.6952 and 16.5163 and 19.8944 and 18.7443 and 18.3535 and 16.3047 and 17.1057
same,Emax,[7]; read-out: Emax (%) mean ± SEM,17.1 ± 1.72%
same,EC50,[8],> 10 µM
same,"Shedding assay response, D94A",[8]; [12],-0.3449 and 0.03257 and -1.499 and 0.2405 and 1.217 and -0.1126 and 0.7155 and 3.933 and 12.3814
same,EC50,[9],> 10 µM
same,"Shedding assay response, E182A",[9]; [12],0.5777 and -0.6527 and 0.544 and 1.716 and -0.08867 and -2.204 and 4.0352 and 2.359 and 1.291
same,EC50,[10],> 10 µM
same,"Shedding assay response, E182N",[10]; [12],-0.3367 and 1.68 and -1.08 and 4.253 and 4.399 and 3.645 and 9.053 and 3.546 and 4.747
same,EC50,[11],> 10 µM
same,"Shedding assay response, F344A",[11]; [12],3.594 and 4.917 and 1.113 and -1.672 and 3.266 and -0.2412 and 0.127 and -2.198 and -1.529
